Measurements as given in patent publication US20240270821A1, “GIP/GLP1/GCG TRI-RECEPTOR AGONISTS AND USES THEREOF” (priority 2023, published 2024).
Like-named read-outs stand apart in the source and are kept apart here. Starred links: 1 amine or outer side, 2 acyl side, 3 side chain; linkers in the order of their positions; H or OH if unused. Non-standard residues stand in square brackets, D forms with d. Groups on a side chain read outwards from the residue. No end group written: not given here. *: point of attachment. C18 diacid = O=C(O)CCCCCCCCCCCCCCCCC(=O)*; αMePhe(2-F) = C[C@](N)(Cc1ccccc1F)C(=O)O; γGlu = O=C(O)[C@H](CCC(=O)[*:2])N[*:1]; αMe4Pal = C[C@](N)(Cc1ccncc1)C(=O)O; αMeY = C[C@](N)(Cc1ccc(O)cc1)C(=O)O; 4Pal = N[C@@H](Cc1ccncc1)C(=O)O; αMeL = CC(C)C[C@](C)(N)C(=O)O; αMeS = C[C@](N)(CO)C(=O)O; Orn = NCCC[C@H](N)C(=O)O; AEEA = NCCOCCOCC(=O)O; Aib = CC(C)(N)C(=O)O

What was measured:
Format in all cases: cell-based
hGcgR = hGcgR (Homo sapiens, UniProt P47871); assay: Functional cAMP activation in the presence of 0.1% casein (no HSA); settings: read-out: Relative cAMP EC50, hGcgR;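 further: intracellular cAMP rise after 30 min at 37 °C, read by HTRF against a cAMP standard curve, scaled from buffer only (0%) to maximal control ligand response (100%)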
Chain of hGcgR (P47871 26-477): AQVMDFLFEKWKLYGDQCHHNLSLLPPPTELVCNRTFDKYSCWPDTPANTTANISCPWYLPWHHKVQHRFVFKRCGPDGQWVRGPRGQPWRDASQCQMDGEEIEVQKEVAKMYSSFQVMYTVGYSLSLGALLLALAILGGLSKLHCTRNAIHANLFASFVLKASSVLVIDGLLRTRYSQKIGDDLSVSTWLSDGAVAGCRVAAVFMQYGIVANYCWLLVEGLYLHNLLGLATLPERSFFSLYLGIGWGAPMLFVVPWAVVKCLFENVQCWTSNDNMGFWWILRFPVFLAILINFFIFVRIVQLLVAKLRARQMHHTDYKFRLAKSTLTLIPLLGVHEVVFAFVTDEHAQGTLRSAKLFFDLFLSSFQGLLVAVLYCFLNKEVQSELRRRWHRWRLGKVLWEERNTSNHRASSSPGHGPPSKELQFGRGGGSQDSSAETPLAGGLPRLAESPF

hGIPR [1] = molecular target: T1, hGIPR (Homo sapiens, UniProt P48546); assay: Functional cAMP activity in the presence of 1% HSA; settings: read-out: cAMP Rel EC50, hGIPR
T1 sequence (P48546 22-466): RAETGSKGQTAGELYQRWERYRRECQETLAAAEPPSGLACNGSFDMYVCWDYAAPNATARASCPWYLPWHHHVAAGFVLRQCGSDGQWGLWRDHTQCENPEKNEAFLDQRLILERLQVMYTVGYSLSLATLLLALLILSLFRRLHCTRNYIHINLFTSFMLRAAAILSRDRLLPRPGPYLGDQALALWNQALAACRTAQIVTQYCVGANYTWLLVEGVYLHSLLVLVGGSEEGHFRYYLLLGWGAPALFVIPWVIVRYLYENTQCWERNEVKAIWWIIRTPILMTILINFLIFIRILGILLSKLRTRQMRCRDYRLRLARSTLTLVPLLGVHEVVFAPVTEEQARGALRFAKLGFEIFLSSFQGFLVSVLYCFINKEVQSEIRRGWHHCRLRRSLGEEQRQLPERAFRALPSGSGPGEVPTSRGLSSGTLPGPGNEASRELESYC

hGLP-1R [2] = molecular target: T2, hGLP-1R (Homo sapiens, UniProt P43220); assay: Functional cAMP activity in the presence of 1% HSA; settings: read-out: cAMP Rel EC50, hGLP-1R
T2 sequence (P43220 24-463): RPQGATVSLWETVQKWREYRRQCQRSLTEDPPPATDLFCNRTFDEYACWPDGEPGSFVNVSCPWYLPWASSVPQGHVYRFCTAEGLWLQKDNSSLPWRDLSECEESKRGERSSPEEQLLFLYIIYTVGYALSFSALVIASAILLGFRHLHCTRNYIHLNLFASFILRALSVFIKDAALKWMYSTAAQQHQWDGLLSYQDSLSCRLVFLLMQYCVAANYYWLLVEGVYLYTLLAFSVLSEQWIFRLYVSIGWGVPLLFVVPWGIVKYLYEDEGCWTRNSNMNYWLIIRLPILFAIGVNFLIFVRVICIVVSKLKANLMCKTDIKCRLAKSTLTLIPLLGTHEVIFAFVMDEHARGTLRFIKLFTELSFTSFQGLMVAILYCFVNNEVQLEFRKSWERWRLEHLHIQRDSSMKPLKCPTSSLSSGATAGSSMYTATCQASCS

human GcgR = human GcgR (Homo sapiens, UniProt P47871); assay: Functional cAMP activity in the presence of 1% HSA; settings: read-out: cAMP Rel EC50, hGcgR
Chain of human GcgR (P47871 26-477): as the sequence (P47871 26-477) above

hGLP-1R [3] = molecular target: T2, hGLP-1R; assay: Functional cAMP activation in the presence of 0.1% casein (no HSA); settings: read-out: Relative cAMP EC50, hGLP-1R;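 on Relative cAMP EC50, hGIPR: intracellular cAMP rise after 30 min at 37 °C read by HTRF against a standard curve, scaled between buffer alone (0%) and top control ligand concentration (100%), four-parameter fit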;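 on Relative cAMP EC50, hGLP-1R: intracellular cAMP rise after 30 min at 37 °C read by HTRF, normalized between buffer only (0%) and maximal control ligand (100%), four-parameter variable-slope fit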
Method: After a 30-minute incubation at 37° C., the resulting increase in intracellular cAMP is quantitatively determined using the CisBio CAMP Dynamic 2 HTRF Assay Kit (62AM4PEJ). Briefly, cAMP levels within the cell are detected by adding the cAMP-d2 conjugate in cell lysis buffer followed by the antibody anti-cAMP-Eu^3+-Cryptate, also in cell lysis buffer.
Intracellular cAMP levels are determined by extrapolation using a standard curve. Dose response curves of compounds are plotted as the percentage of stimulation normalized to minimum (buffer only) and maximum (maximum concentration of each control ligand) values and analyzed using a four parameter non-linear regression fit with a variable slope (Genedata Screener 13). EC50 is the concentration of compound causing half-maximal simulation in a dose response curve. Each relative EC50 value for the Geometric mean calculation is determined from a curve fitting.

hGIPR [4] = molecular target: T1, hGIPR; assay: as above; settings: read-out: Relative cAMP EC50, hGIPR
[5] = in the presence of 0.1% casein (no HSA), geometric mean
[6] = HEK-293 clonal cell line, in the presence of 1% HSA, geometric mean of relative EC50

Substance	EC50 (hGcgR; [5]) [nM]	EC50 (hGIPR [1]) [nM]	EC50 (hGLP-1R [2]) [nM]	EC50 (human GcgR) [nM]	EC50 (hGLP-1R [3]; [5]) [nM]	EC50 (hGIPR [4]; [5]) [nM]	EC50 (hGIPR [1]; [6]) [nM]	EC50 (hGLP-1R [2]; [6]) [nM]	EC50 (human GcgR; [6]) [nM]	EC50 (hGcgR) [nM]	EC50 (hGLP-1R [3]) [nM]	EC50 (hGIPR [4]) [nM]
H-Y[Aib]QGTFTSD[4Pal]SQ[αMeL]LDKK([γGlu-γGlu-C18 diacid])AQ[αMe4Pal]AFIEYLIAGGESSGAPPPSGSEE-NH2 [Example 963]	5.81	25.1	215	900	1.77	0.244						
H-Y[Aib]QGTFTSDFS[Orn][αMeL]LD[Orn]K([γGlu-γGlu-C18 diacid])AQ[Aib]AFIE[αMeY]LLEGGPSSGAPPPGGSEE-NH2 [Example 1049]	6.33				2.23	0.24	56.2	780	1280			
Y[Aib]QGTFTSD[4Pal]SR[αMeL]LDKK([AEEA-γGlu-C18 diacid])AQ[αMe4Pal]AFIE[αMeY]LIEGGPSSGAPPPSGS-NH2 [Example 843]	3.41	32.8	135	367	0.874	0.334						
H-Y[Aib]QGTFTSDFSK[αMeL]LDKK([AEEA-AEEA-γGlu-C18 diacid])AQ[Aib]AFIEYLLEGGPSSGAPPPSGS-NH2 [Example 142]	3.49	14.1	391	1230	4.37	0.216						
H-Y[Aib]QGTFTSD[4Pal]SQ[αMeL]LD[Orn]K([γGlu-γGlu-C18 diacid])AQ[αMe4Pal]AFIE[αMeY]LIA[Aib]GPSSGEPPPSGSEE-NH2 [Example 1094]	5.84	5.86	64.4	831	0.623	0.0515						
H-Y[Aib]QGT[αMePhe(2-F)]TSD[4Pal][αMeS]I[αMeL]LD[Orn]K([γGlu-γGlu-C18 diacid])AQ[Aib][Orn]FI[dE][αMeY]LIEGGPSSGEPPPSEG-NH2 [Example 480]		0.722	8.39	65.5						1.47	0.215	0.0107
H-Y[Aib]QGT[αMePhe(2-F)]TSD[4Pal]SI[αMeL]LD[Orn]K([γGlu-γGlu-C18 diacid])AQ[αMe4Pal]EFI[dE][αMeY]LAEGGPSSGAPPPSGS-NH2 [Example 646]		1.09	90.5	1260						23.1	2.58	0.0336
H-Y[Aib]QGTFTSDFS[Orn][αMeL]LDKK([AEEA-γGlu-C18 diacid])AQ[Aib]AFIEYLLEGGPSSGAPPPGGQ-NH2 [Example 159]	6.89	49.7	588	475	4.15	0.343						
Y[Aib]QGT[αMePhe(2-F)]TSD[4Pal]SI[αMeL]LD[Orn]K([AEEA-γGlu-C18 diacid])AQ[αMe4Pal][Orn]FI[dE][αMeY]LIEGGPSSGDPPPEAE-NH2 [Example 728]		1.45	26.7	298						2.45	0.277	0.0116
H-Y[Aib]QGTFTSDFS[Orn][αMeL]LDKK([γGlu-AEEA-γGlu-C18 diacid])AQ[Aib]AFIEYLLE[Aib]GHSSGAPPPSGS-NH2 [Example 245]	7.07	10.5	540	1120	5.99	0.0684						
H-Y[Aib]QGTFTSD[4Pal]SQ[αMeL]LDKK([γGlu-AEEA-γGlu-C18 diacid])AQ[αMe4Pal]AFIEYLIE[Aib]GPSSGAPPPSGS-NH2 [Example 861]	8.59	18.3	322	1350	2.62	0.195						
